Laboratory results published in PubChem BioAssay (NCI).
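Cultured in 96-well plates, cells were exposed to test compound for 48 hours across five concentrations. GI50 = concentration required for 50% inhibition of growth. TGI is the concentration that stops growth completely.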

Tests used:
Assay in all cases: growth of human tumour cells (NCI), 48 h
DMS 114 small cell lung = tested on: DMS 114 small cell lung
HOP-62 NSCLC = tested on: HOP-62 NSCLC
KM12 colon = tested on: KM12 colon
NCI-H23 lung = tested on: NCI-H23 lung
NCI-H460 lung = tested on: NCI-H460 lung
NCI/ADR-RES ovarian = tested on: NCI/ADR-RES ovarian
ACHN renal = tested on: ACHN renal
MDA-N = tested on: MDA-N
PC-3 prostate = tested on: PC-3 prostate
SR leukemia = tested on: SR leukemia
TK-10 renal = tested on: TK-10 renal

SMILES	TGI (DMS 114 small cell lung)	TGI (HOP-62 NSCLC)	TGI (KM12 colon)	TGI (NCI-H23 lung)	TGI (NCI-H460 lung)	TGI (NCI/ADR-RES ovarian)	TGI (ACHN renal)	TGI (MDA-N)	TGI (PC-3 prostate)	TGI (SR leukemia)	TGI (TK-10 renal)	GI50 (ACHN renal)	GI50 (HOP-62 NSCLC)	GI50 (KM12 colon)	GI50 (NCI-H23 lung)	GI50 (NCI-H460 lung)	GI50 (NCI/ADR-RES ovarian)	GI50 (PC-3 prostate)	GI50 (TK-10 renal)	GI50 (MDA-N)
CCOC(=O)CNC(=O)N(CC)C12CC3CC(CC(C3)C1)C2	274 µM	266 µM	453 µM	419 µM	406 µM	402 µM	–	–	–	–	–	–	–	–	–	–	–	–	–	–
CCOP(=O)(OCC)C(c1ccc(F)cc1)N(C(=O)NC(F)(F)F)c1cccc(C(F)(F)F)c1 (stereo unspecified)	–	> 100 µM	> 100 µM	> 100 µM	> 100 µM	> 100 µM	> 100 µM	> 100 µM	> 100 µM	> 100 µM	> 100 µM	–	–	–	–	–	–	–	–	–
CC(=O)Nc1ccc(/C=C/c2ccc(NC(=O)Nc3ccc(/C=C/c4ccc(NC(C)=O)cc4S(=O)(=O)O)c(S(=O)(=O)O)c3)cc2S(=O)(=O)O)c(S(=O)(=O)O)c1	> 100 µM	> 100 µM	> 100 µM	> 100 µM	> 100 µM	> 100 µM	–	–	–	–	–	–	–	–	–	–	–	–	–	–
COc1ccccc1CNCCCN1C(=O)c2ccc3c4c(ccc(c24)C1=O)C(=O)N(CCCNCCNCCCN)C3=O	–	14.2 µM	11.4 µM	5.59 µM	6.47 µM	> 100 µM	79.8 µM	–	80.2 µM	–	44.7 µM	4.45 µM	2.46 µM	3.25 µM	1.72 µM	2.08 µM	23.1 µM	5.91 µM	6.65 µM	–
CCC(C)NC1=NCC(C)S1 (stereo unspecified)	–	> 100 µM	> 100 µM	> 100 µM	> 100 µM	–	> 100 µM	> 100 µM	> 100 µM	> 100 µM	–	–	–	–	–	–	–	–	–	–
CC1CC2=C(S(=O)(=O)c3ccccc3)CC(S(=O)(=O)c3ccccc3)(S(=O)(=O)c3ccccc3)CC21 (stereo unspecified)	> 100 µM	> 100 µM	> 100 µM	> 100 µM	> 100 µM	–	> 100 µM	–	–	> 100 µM	> 100 µM	–	–	–	–	–	–	–	–	–
Clc1ccc(C[P+](c2ccccc2)(c2ccccc2)c2ccccc2)c(Cl)c1	6 µM	27.9 µM	7.01 µM	13 µM	11.8 µM	–	47.6 µM	–	–	8.13 µM	25.6 µM	–	–	–	–	–	–	–	–	–
CCOC(=O)Cn1c(=O)ccn(COCCO)c1=O	–	> 100 µM	> 100 µM	> 100 µM	> 100 µM	> 100 µM	> 100 µM	> 100 µM	> 100 µM	–	> 100 µM	–	–	–	–	–	–	–	–	–
COc1cc2oc(-c3ccc(O)cc3)c(OC)c(=O)c2c(O)c1OC	–	> 100 µM	> 100 µM	> 100 µM	> 100 µM	> 100 µM	> 100 µM	> 100 µM	> 100 µM	–	> 100 µM	35.8 µM	42.3 µM	78.9 µM	63.4 µM	41.1 µM	30.9 µM	40.6 µM	62.4 µM	25.5 µM
C[C@@H]1Nc2cc(NC(=O)OCCF)nc(N)c2N=C1c1ccccc1	–	–	–	> 100 µM	–	< 0.0001 µM	> 100 µM	< 0.0001 µM	> 100 µM	–	–	< 0.0001 µM	–	–	–	–	–	–	–	–
CCOC(=O)c1ccc(N[C@@H]2c3cc4c(cc3C(c3cc(OC)c(O)c(OC)c3)[C@H]3C(=O)OCC32)OCO4)cc1O (stereo partly specified)	2.03 µM	1.56 µM	1.47 µM	4.26 µM	0.822 µM	99.3 µM	–	–	–	–	–	–	–	–	–	–	–	–	–	–
C/C(=N/NC(N)=S)c1ccc[nH]1	–	> 100 µM	> 100 µM	> 100 µM	> 100 µM	> 100 µM	> 100 µM	> 100 µM	> 100 µM	–	> 100 µM	–	–	–	–	–	–	–	–	–
COCCCNc1nc(N)c(C#N)c(C#N)c1C#N	–	> 10 µM	> 10 µM	> 10 µM	> 10 µM	> 10 µM	> 10 µM	> 10 µM	> 10 µM	> 10 µM	> 10 µM	–	–	–	–	–	–	–	–	–
CC1CCCCNC1=S (stereo unspecified)	–	> 10 µM	> 10 µM	> 10 µM	> 10 µM	–	> 10 µM	> 10 µM	> 10 µM	> 10 µM	> 10 µM	–	–	–	–	–	–	–	–	–
COc1ccc(S(=O)(=O)c2ccccc2[N+](=O)[O-])cc1	> 100 µM	> 100 µM	> 100 µM	> 100 µM	> 100 µM	–	–	–	–	> 100 µM	> 100 µM	–	–	–	–	–	–	–	–	–
